Measurements published in ChEMBL document CHEMBL1201862, “PubChem BioAssay data set” (2004).
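The compound was tested at five concentrations on cells cultured in 96-well plates, with a 48-hour exposure period. GI50 is the concentration that inhibits growth by half.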 The source made the active and inactive calls. No stated cut-off is given here; in the data, active = GI50 up to about 1.1 µM and inactive = higher.

Tests used:
Assay in all cases: growth of human tumour cells (NCI), 48 h
TK-10 = system: TK-10
Hs-578T = system: Hs-578T
SR = system: SR
HCT-15 = system: HCT-15
NCI-H226 = system: NCI-H226
OVCAR-4 = system: OVCAR-4
HT-29 = system: HT-29
SNB-19 = system: SNB-19
ACHN = system: ACHN
HL-60 = system: HL-60
SK-MEL-28 = system: SK-MEL-28
LOX IMVI = system: LOX IMVI
DU-145 = system: DU-145
NCI-H460 = system: NCI-H460
UO-31 = system: UO-31
SW-620 = system: SW-620
EKVX = system: EKVX
U-251 = system: U-251
SF-268 = system: SF-268
HCT-116 = system: HCT-116
MDA-MB-435 = system: MDA-MB-435
A498 = system: A498
SN12C = system: SN12C
NCI-H23 = system: NCI-H23
SF-295 = system: SF-295
SK-MEL-5 = system: SK-MEL-5
NCI/ADR-RES = system: NCI/ADR-RES
RPMI-8226 = system: RPMI-8226
HOP-92 = system: HOP-92
Malme-3M = system: Malme-3M
MCF7 = system: MCF7
CCRF-CEM = system: CCRF-CEM
SF-539 = system: SF-539
RXF 393 = system: RXF 393
M14 = system: M14
MOLT-4 = system: MOLT-4
786-0 = system: 786-0
PC-3 = system: PC-3
BT-549 = system: BT-549
MDA-N = system: MDA-N
K562 = system: K562
A549 = system: A549
OVCAR-8 = system: OVCAR-8
HCC 2998 = system: HCC 2998
IGROV-1 = system: IGROV-1
UACC-257 = system: UACC-257

In the case of `CC(C)(C)OC(=O)C1C(=O)NC(=O)CC1CC(OCc1ccccc1)C(COCc1ccccc1)OCc1ccccc1` (stereo unspecified), the GI50 (TK-10) is reported as > 100 µM (inactive), the GI50 (Hs-578T) is reported as 14 µM (inactive) and the GI50 (SR) is reported as 3.87 µM (inactive). The GI50 (HCT-15) was 4.41 µM, the GI50 (NCI-H226) was 10.9 µM (inactive) and the GI50 (OVCAR-4) was 6.55 µM (inactive). The GI50 (HT-29) was 3.45 µM (inactive), the GI50 (SNB-19) was 20.6 µM (inactive) and the GI50 (ACHN) was 10.2 µM (inactive). The GI50 (HL-60) was 1.97 µM (inactive), the GI50 (SK-MEL-28) was 29.4 µM (inactive) and the GI50 (LOX IMVI) was 10.9 µM (inactive). For the same molecule, the GI50 (DU-145) was 23.6 µM (inactive), the GI50 (NCI-H460) was 13.4 µM (inactive) and the GI50 (UO-31) was 2.19 µM (inactive). The GI50 (SW-620) was 9.33 µM (inactive), the GI50 (EKVX) was 16.5 µM (inactive) and the GI50 (U-251) was 5.18 µM (inactive). For the same molecule, the GI50 (SF-268) was 11.3 µM (inactive), the GI50 (HCT-116) was 5.36 µM (inactive) and the GI50 (MDA-MB-435) was 5.3 µM (inactive). For the same molecule, the GI50 (A498) was 26.5 µM (inactive), the GI50 (SN12C) was 25 µM (inactive) and the GI50 (NCI-H23) was 10.1 µM (inactive). For the same molecule, the GI50 (SF-295) was 8.38 µM (inactive), the GI50 (SK-MEL-5) was 12.6 µM (inactive) and the GI50 (NCI/ADR-RES) was 10 µM (inactive). The GI50 (RPMI-8226) was 3.07 µM (inactive), the GI50 (HOP-92) was 11.9 µM (inactive) and the GI50 (Malme-3M) was 3.06 µM (inactive). For the same molecule, the GI50 (MCF7) was 4.51 µM (inactive), the GI50 (CCRF-CEM) was 11.6 µM (inactive) and the GI50 (SF-539) was 10.9 µM (inactive). For the same molecule, the GI50 (RXF 393) was 2.55 µM (inactive), the GI50 (M14) was 14 µM (inactive) and the GI50 (MOLT-4) was 2.88 µM (inactive). The GI50 (786-0) was 6.79 µM (inactive), the GI50 (PC-3) was 6.44 µM (inactive) and the GI50 (BT-549) was 5.48 µM (inactive). For the same molecule, the GI50 (MDA-N) was 16.2 µM (inactive), the GI50 (K562) was 5.19 µM (inactive) and the GI50 (A549) was 5.06 µM (inactive). The GI50 (OVCAR-8) was 10.3 µM (inactive), the GI50 (HCC 2998) was 3.81 µM (inactive) and the GI50 (IGROV-1) was 23.2 µM (inactive). The GI50 (UACC-257) was 15.5 µM (inactive).
